Data as given in US20140323543A1, “Treatment of Prostate Cancer with eIF4E Antisense Compounds” (priority 2013, published 2014).
Marks after values point to notes of the source that are not given here. In the oligonucleotide strings, read from the 5' end, every base follows the letter of its sugar. An asterisk marks phosphorothioate; unmarked linkages are phosphodiester. Other units and linkages are bracketed, terminal groups are in braces. A string of capitals states the bases alone. e = 2'-O-(2-methoxyethyl) (MOE); [5mC] = 5-methylcytosine; d = 2'-deoxy (DNA)

Columns and labels:
Type in all cases: in vivo
[1] = test system: PC-3 Hormone-Refractory Prostate Cancer Xenograft; test: PC-3 hormone-refractory prostate cancer xenograft tumor volume in mice; settings: ASO 50 mg/kg iv; for Mean Tumor Volume: in mm³; for Percent Reduction in Mean Tumor Volumes (observed): Prostate PC3 Day 35, vs. Vehicle Control
Procedure: (§1) Xenograft studies are carried out as described in Graff et al. (2005) Cancer Res. 65:7462-7469. Five million human cancer cells representing non-small cell lung cancer (line A549; ATCC, accession no. CCL-185), hormone refractory prostate cancer (line PC-3; ATCC, accession no. CRL-1435), and ER-/PR-HER2-breast cancer (line MDA-231; ATCC, accession no. HTB-26) are injected subcutaneously in the flank of 6-8 week old, athymic nude mice (Harlan, Indianapolis, Ind.) in a 1:1 mixture of serum-free growth medium and matrigel (Becton Dickinson, Bedford, Mass., catalogue #354234). Mice are monitored daily for palpable tumors.
(§2) When tumor volumes reach ˜50-100 mm^3, mice are randomized to treatment groups (Graff et al. (2007) J. Clin. Invest. 117:2638-48). Body weight is monitored each time tumors are measured.
(§3) For treatment, all mice are injected intravenously with the eIF-4E ASO in saline in a total volume of 200 μl. The ASO consists of the nucleotide sequence 5′-[…]-3′ (SEQ ID NO:1), in which every internucleoside linkage is a phosphorothioate linkage, nucleotides 1-5 and 16-20 reading from the 5′ end to the 3′ end each comprise a 2′-O-(2-methoxyethyl) sugar, nucleotides 6-15 are 2′-deoxynucleotides, every cytosine residue is a 5-methylcytosine, and which is in the form of a sodium salt. The mice are first injected with an initial loading dose of 50 mg/kg ASO for 3 consecutive days, followed by 50 mg/kg thrice weekly thereafter.
(§4) Taxotere® (docetaxel) dosing begins 8 days after the first ASO dose to allow time for reduction of eIF-4E protein expression. Mice are dosed with 2.5 or 10 mg/kg Taxotere® (Sanofi-Aventis) intraperitoneally (IP) in 1% ethanol in 5% dextrose water in a volume of 200 μl once weekly for 3 weeks.
(§5) Tumor volumes are calculated measuring the largest (L) and smallest (W) diameters with a caliper. The formula is: Volume=L×W^2×0.534. Tumor volume data are transformed to a log scale to equalize variance across time and treatment groups. The log volume data are analyzed with a two-way repeated measures analysis of variance by time and treatment using SAS PROC MIXED software (SAS Institute Inc, Cary, N.C.) using the spatial power covariance structure. Treatment groups are compared to the control group at each time point and overall. The data may be plotted as means and standard errors for each treatment group versus time. Additivity is assessed in two ways: (1) as an overall interaction effect between the ASO and Taxotere® in the repeated measures analysis, and (2) by using the Bliss Independence method on the final day of the study (C.I. Bliss (1939) Ann. Appl. Biol. 26:585-615). These two methods yield the same results.
(§6) The observed percent reductions in mean tumor volume at the conclusion of each study resulting from the various treatments are shown in Table 4. These are calculated as: […]
(§7) The “Expected if Additive” percent reductions in mean tumor volume shown in Table 4 are calculated using the Bliss Independence definition of additivity, as follows: […]

[2] = test system: MDA-231 Breast Cancer Xenograft; test: MDA-231 breast cancer xenograft tumor volume in mice; settings: for Percent Reduction in Mean Tumor Volumes (observed): Breast MDA-231 Day 33, vs. Vehicle Control; for Percent Reduction in Mean Tumor Volumes (observed) / Mean Tumor Volume: ASO 50 mg/kg iv; for Mean Tumor Volume: in mm³
Procedure: as §1, §2, §3, §4, §5, §6, §7

[3] = test system: A549 Non-Small Cell Lung Cancer Xenograft; test: A549 non-small cell lung cancer xenograft tumor volume in mice; design: key to Mean Tumor Volume: tumor volume in mm^3; settings: ASO 50 mg/kg iv; for Mean Tumor Volume: in mm³; for Percent Reduction in Mean Tumor Volumes (observed): NSCLC A 549 Day 50, vs. Vehicle Control, Taxotere 10 mg/kg IP
Procedure: as §1, §2, §3, §4, §5, §6, §7

[4] = Day 7, Taxotere 10 mg/kg IP once weekly from 8 days after first ASO dose, tumor volumes in mm^3
[5] = Day 5, Taxotere 2.5 mg/kg IP once weekly from 8 days after first ASO dose, tumor volumes in mm^3
[6] = Day 7, docetaxel 10 mg/kg IP once weekly from 8 days after first ASO dose, tumor volumes in mm^3

| Compound | Mean Tumor Volume [1, 4] | Mean Tumor Volume ([1]; Day 12, Taxotere 10 mg/kg IP) | Mean Tumor Volume ([1]; Day 15, Taxotere 10 mg/kg IP) | Mean Tumor Volume ([1]; Day 19, Taxotere 10 mg/kg IP) | Mean Tumor Volume ([1]; Day 22, Taxotere 10 mg/kg IP) | Mean Tumor Volume ([1]; Day 27, Taxotere 10 mg/kg IP) | Mean Tumor Volume ([1]; Day 29, Taxotere 10 mg/kg IP) | Mean Tumor Volume ([1]; Day 33, Taxotere 10 mg/kg IP) | Mean Tumor Volume ([1]; Day 35, Taxotere 10 mg/kg IP) | Percent Reduction in Mean Tumor Volumes (observed) ([1]; Taxotere 10 mg/kg IP) | Percent Reduction in Mean Tumor Volumes (observed) ([2]; Taxotere 2.5 mg/kg IP) | Mean Tumor Volume [2, 5] | Mean Tumor Volume ([2]; Day 8, Taxotere 2.5 mg/kg IP) | Mean Tumor Volume ([2]; Day 12, Taxotere 2.5 mg/kg IP) | Mean Tumor Volume ([2]; Day 15, Taxotere 2.5 mg/kg IP) | Mean Tumor Volume ([2]; Day 19, Taxotere 2.5 mg/kg IP) | Mean Tumor Volume ([2]; Day 22, Taxotere 2.5 mg/kg IP) | Mean Tumor Volume ([2]; Day 26, Taxotere 2.5 mg/kg IP) | Mean Tumor Volume ([2]; Day 29, Taxotere 2.5 mg/kg IP) | Mean Tumor Volume ([2]; Day 33, Taxotere 2.5 mg/kg IP) | further results |
| --- | --- | --- | --- | --- | --- | --- | --- | --- | --- | --- | --- | --- | --- | --- | --- | --- | --- | --- | --- | --- | --- |
| CC(=O)O[C@@]12CO[C@@H]1C[C@H](O)[C@@]1(C)C(=O)[C@H](O)C3=C(C)[C@@H](OC(=O)[C@H](O)[C@@H](NC(=O)OC(C)(C)C)c4ccccc4)C[C@@](O)([C@@H](OC(=O)c4ccccc4)[C@H]21)C3(C)C [Docetaxel, (2R,3S)—N-carboxy-3-phenylisoseine,N-tert-butyl ester, 13-ester with 5β-20-epoxy-1,2α,4,7β,10β,13α-hexahydroxytax-11-en-9-one 4-acetate 2-benzoate, trihydrate, reference compound] | 46.3 | 106.8 | 134.7 | 164.8 | 171.7 | 157.4 | 162.7 | 161.6 | 167.0 | −69.5%* | −1.4% | 78.7 | 130.1 | 180.9 | 221.0 | 270.3 | 333.9 | 384.9 | 450.4 | 529.6 | Mean Tumor Volume [3, 6]: 49.7; Mean Tumor Volume ([3]; Day 10, docetaxel 10 mg/kg IP): 56.7; Mean Tumor Volume ([3]; Day 15, docetaxel 10 mg/kg IP): 114.8; Mean Tumor Volume ([3]; Day 18, docetaxel 10 mg/kg IP): 70.0; Mean Tumor Volume ([3]; Day 22, docetaxel 10 mg/kg IP): 135.8; Mean Tumor Volume ([3]; Day 25, docetaxel 10 mg/kg IP): 170.1; Mean Tumor Volume ([3]; Day 29, docetaxel 10 mg/kg IP): 257.0; Mean Tumor Volume ([3]; Day 32, docetaxel 10 mg/kg IP): 261.5; Mean Tumor Volume ([3]; Day 36, docetaxel 10 mg/kg IP): 290.0; Mean Tumor Volume ([3]; Day 39, docetaxel 10 mg/kg IP): 282.3; Mean Tumor Volume ([3]; Day 43, docetaxel 10 mg/kg IP): 342.6; Mean Tumor Volume ([3]; Day 46, docetaxel 10 mg/kg IP): 310.2; Mean Tumor Volume ([3]; Day 50, docetaxel 10 mg/kg IP): 343.8; Percent Reduction in Mean Tumor Volumes (observed) [3]: −29.6% |
| d(P-thio)([2′-O-(2-methoxyethyl)]m5rU-([2′-O-(2-methoxyethyl)]rG-([2′-O-(2-methoxyethyl)]m5rU-([2′-O-(2-methoxyethyl)]m5rC-([2′-O-(2-methoxyethyl)]rA-T-A-T-T-m5C-m5C-T-G-G-A-([2′-O-(2-methoxyethyl)]m5rU-([2′-O-(2-methoxyethyl)]m5rC-([2′-O-(2-methoxyethyl)]m5rC-([2′-O-(2-methoxyethyl)]m5rU-([2′-O-(2-methoxyethyl)]m5rU) (antisense eT*eG*eT*e[5mC]*eA*dT*dA*dT*dT*d[5mC]*d[5mC]*dT*dG*dG*dA*eT*e[5mC]*e[5mC]*eT*eT) [eIF-4E ASO] | 49.8 | 88.3 | 130.3 | 159.0 | 218.8 | 294.5 | 343.9 | 424.0 | 491.2 | −10.2% | +16.6% | 78.9 | 129.4 | 166.6 | 221.0 | 268.2 | 356.3 | 435.9 | 574.1 | 626.2 | Effect on mean tumor volume (in words) ([2]; breast cancer model, ASO alone): non-statistically significant increase; Mean Tumor Volume [3, 6]: 52.7; Mean Tumor Volume ([3]; Day 10, docetaxel 10 mg/kg IP): 69.4; Mean Tumor Volume ([3]; Day 15, docetaxel 10 mg/kg IP): 113.7; Mean Tumor Volume ([3]; Day 18, docetaxel 10 mg/kg IP): 79.1; Mean Tumor Volume ([3]; Day 22, docetaxel 10 mg/kg IP): 139.5; Mean Tumor Volume ([3]; Day 25, docetaxel 10 mg/kg IP): 149.0; Mean Tumor Volume ([3]; Day 29, docetaxel 10 mg/kg IP): 220.1; Mean Tumor Volume ([3]; Day 32, docetaxel 10 mg/kg IP): 249.5; Mean Tumor Volume ([3]; Day 36, docetaxel 10 mg/kg IP): 256.6; Mean Tumor Volume ([3]; Day 39, docetaxel 10 mg/kg IP): 239.1; Mean Tumor Volume ([3]; Day 43, docetaxel 10 mg/kg IP): 313.2; Mean Tumor Volume ([3]; Day 46, docetaxel 10 mg/kg IP): 292.3; Mean Tumor Volume ([3]; Day 50, docetaxel 10 mg/kg IP): 404.0; Percent Reduction in Mean Tumor Volumes (observed) [3]: −17.3% |
